These compounds were tested against T1, Pancreatic triacylglycerol lipase (Sus scrofa, UniProt P00591) (assay: Inhibition of porcine pancreatic lipase using p-nitrophenyl butyrate as substrate assessed as formation of p-nitrophenol preincubated for 10 mins followed by substrate addition by spectrophotometric method).
T1 sequence (P00591 whole entry): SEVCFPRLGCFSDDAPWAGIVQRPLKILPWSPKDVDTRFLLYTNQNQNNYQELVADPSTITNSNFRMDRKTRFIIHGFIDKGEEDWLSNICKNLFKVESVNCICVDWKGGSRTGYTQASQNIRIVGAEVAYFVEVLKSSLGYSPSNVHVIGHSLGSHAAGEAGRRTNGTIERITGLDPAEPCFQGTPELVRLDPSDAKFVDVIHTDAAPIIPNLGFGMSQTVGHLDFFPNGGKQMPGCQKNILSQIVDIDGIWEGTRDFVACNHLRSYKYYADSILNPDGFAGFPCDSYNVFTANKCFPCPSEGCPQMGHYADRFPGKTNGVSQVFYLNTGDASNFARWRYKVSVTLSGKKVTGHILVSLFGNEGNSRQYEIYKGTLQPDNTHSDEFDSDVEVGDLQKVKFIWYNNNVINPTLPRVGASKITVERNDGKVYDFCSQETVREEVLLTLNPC

SMILES | IC50
COc1cc(O)cc(-c2cc3ccc(O)cc3o2)c1C/C=C(/C)CC/C=C(/C)CCC=C(C)C | 570 nM
CC(C)=CCCC(C)=CCc1c(O)cc2c(c1O)C(=O)C[C@@H](c1ccc(O)c(CC=C(C)C)c1O)O2 | 710 nM
COc1cc(O)cc(-c2cc3ccc(O)c(C/C=C(/C)CCC=C(C)C)c3o2)c1CC=C(C)C | 920 nM
CC(C)=CCCC1(C)C=Cc2c(O)cc(-c3cc4ccc(O)cc4o3)cc2O1 (centres undefined) | 760 nM
CC(C)=CCC/C(C)=C\Cc1c(O)ccc2cc(-c3cc(O)c4ccoc4c3)oc12 | 480 nM
CC(C)=CCC/C(C)=C\CC/C(C)=C\Cc1c(O)cc(O)c(CC=C(C)C)c1-c1cc2ccc(O)cc2o1 | 390 nM
COc1cc(O)cc(/C=C/c2ccc(O)cc2)c1C/C=C(/C)CCC=C(C)C | 850 nM
CC(C)=CCC/C(C)=C\CC/C(C)=C\Cc1c(O)cc(O)cc1-c1cc2ccc(O)cc2o1 [MULBERROFURAN W] | 700 nM
CC(C)=CCC/C(C)=C/Cc1c(O)ccc2cc(-c3cc(O)cc(O)c3CC=C(C)C)oc12 [MULBERROFURAN D] | 90 nM

From ChEMBL document CHEMBL3797192, “Potential pancreatic lipase inhibitory activity of phenolic constituents from the root bark of Morus alba L” (Bioorg Med Chem Lett, 2016)
